The target of assay [1] is Kir6.2 (pore subunit of the pancreatic beta-cell KATP channel) (Mus musculus, UniProt Q61743). In words: inside-out patch-clamp, single-channel NPo concentration-effect. The assay is classed as cell-based. (Patch clamp records ionic current or voltage across a cell membrane.)
Assay [2] deals with SUR1 (sulphonylurea receptor subunit of the pancreatic beta-cell KATP channel) (Mus musculus, UniProt B2RUS7). The experiment in a line: standard whole-cell patch-clamp, block by a single concentration. The assay is classed as cell-based. Particulars: read-out: % inhibition at 20 μmol/L.
SUR1 (sulphonylurea receptor subunit of the pancreatic beta-cell KATP channel), sequence (B2RUS7 1-1588): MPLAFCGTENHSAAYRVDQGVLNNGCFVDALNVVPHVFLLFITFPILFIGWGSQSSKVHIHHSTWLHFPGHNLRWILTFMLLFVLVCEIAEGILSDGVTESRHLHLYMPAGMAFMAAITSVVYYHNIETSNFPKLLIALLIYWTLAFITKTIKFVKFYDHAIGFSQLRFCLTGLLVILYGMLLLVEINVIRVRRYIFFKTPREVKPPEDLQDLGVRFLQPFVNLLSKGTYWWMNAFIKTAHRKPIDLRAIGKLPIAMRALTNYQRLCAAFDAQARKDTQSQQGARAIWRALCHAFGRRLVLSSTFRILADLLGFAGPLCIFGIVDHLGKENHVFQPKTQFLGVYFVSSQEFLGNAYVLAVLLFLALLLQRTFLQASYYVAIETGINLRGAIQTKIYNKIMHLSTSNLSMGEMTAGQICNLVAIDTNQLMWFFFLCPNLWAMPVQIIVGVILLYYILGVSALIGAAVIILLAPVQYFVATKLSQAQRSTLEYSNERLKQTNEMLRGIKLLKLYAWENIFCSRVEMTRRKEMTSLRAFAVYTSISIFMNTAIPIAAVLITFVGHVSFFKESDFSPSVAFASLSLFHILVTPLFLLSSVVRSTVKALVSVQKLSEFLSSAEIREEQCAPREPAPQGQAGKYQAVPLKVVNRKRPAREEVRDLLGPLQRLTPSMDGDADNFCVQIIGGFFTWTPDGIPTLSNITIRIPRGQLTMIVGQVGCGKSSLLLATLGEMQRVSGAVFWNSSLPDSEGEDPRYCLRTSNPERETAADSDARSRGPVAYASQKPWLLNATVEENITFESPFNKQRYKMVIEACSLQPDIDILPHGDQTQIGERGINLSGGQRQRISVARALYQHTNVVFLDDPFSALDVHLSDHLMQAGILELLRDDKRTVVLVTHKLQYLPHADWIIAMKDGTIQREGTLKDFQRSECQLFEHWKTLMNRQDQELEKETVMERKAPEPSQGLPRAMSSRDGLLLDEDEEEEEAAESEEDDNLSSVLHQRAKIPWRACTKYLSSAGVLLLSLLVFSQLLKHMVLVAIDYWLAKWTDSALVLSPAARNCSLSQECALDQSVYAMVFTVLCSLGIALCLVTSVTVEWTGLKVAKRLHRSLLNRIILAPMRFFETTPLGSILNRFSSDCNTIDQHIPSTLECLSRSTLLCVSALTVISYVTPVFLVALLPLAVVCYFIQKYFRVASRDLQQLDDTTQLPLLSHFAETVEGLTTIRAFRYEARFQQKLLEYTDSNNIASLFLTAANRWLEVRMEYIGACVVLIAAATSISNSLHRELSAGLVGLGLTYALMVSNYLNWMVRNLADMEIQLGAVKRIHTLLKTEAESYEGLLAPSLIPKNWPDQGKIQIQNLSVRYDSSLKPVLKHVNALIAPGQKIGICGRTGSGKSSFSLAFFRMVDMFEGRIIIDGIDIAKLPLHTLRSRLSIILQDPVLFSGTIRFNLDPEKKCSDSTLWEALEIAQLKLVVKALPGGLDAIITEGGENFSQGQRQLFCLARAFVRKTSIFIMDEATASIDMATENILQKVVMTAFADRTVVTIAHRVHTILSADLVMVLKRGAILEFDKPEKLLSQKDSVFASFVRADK
SUR1 (sulphonylurea receptor subunit of the pancreatic beta-cell KATP channel), sequence (Q61743 whole entry partner): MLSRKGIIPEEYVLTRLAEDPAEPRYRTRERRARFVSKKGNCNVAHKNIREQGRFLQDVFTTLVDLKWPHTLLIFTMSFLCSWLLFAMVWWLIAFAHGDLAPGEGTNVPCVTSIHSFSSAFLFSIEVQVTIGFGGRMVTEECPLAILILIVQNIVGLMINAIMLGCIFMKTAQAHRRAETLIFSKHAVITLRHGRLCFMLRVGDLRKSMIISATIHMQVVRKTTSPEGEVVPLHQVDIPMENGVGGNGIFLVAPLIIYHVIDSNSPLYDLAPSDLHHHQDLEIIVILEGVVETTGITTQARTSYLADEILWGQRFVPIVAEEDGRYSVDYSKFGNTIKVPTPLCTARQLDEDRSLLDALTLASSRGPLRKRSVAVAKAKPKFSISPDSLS

Kir6.2 (pore subunit of the pancreatic beta-cell KATP channel), sequence (Q61743 whole entry): as the sequence (Q61743 whole entry partner) above
Kir6.2 (pore subunit of the pancreatic beta-cell KATP channel), sequence (B2RUS7 1-1588 partner): as the sequence (B2RUS7 1-1588) above

As a reminder, the IC50 is the concentration at which inhibition is half-maximal. Read a high IC50 as weaker potency in that assay. As for `CCC(C)(C)C(=O)O[C@H]1C[C@@H](C)C=C2C=C[C@H](C)[C@H](CC[C@@H]3C[C@@H](O)CC(=O)O3)[C@H]21` [Sim, simvastatin], the IC50 in assay [1] was 26 nM.
On to `CCCCNC(=O)NS(=O)(=O)c1ccc(C)cc1` [Tb, tolbutamide], for which the inhibition at 20 µM in assay [2] stood at 43 ± 3.3%.

The values are drawn from article PMC6354820 (Endocrinology, Diabetes & Metabolism, 2018).
